# Reference: article PMC10366102, “Dose escalation and expansion cohorts in patients with advanced breast cancer in a Phase I study of the CDK7-inhibitor samuraciclib” (Nature Communications, 2023)
# Like-named read-outs stand apart in the source and are kept apart here.
# Assays:
# [1] = design: method as in ref IB; conditions: dog microsomes; ref IB; cited from earlier work
# [2] = design: method as in ref IB; conditions: rat microsomes; ref IB; cited from earlier work
# reticulocyte counts = test: Reticulocyte counts in Module 1A patients; format: in vivo, human
# From the text: Enumeration of reticulocyte counts was used as a biomechanical PDc marker, based on the mechanistic r ationale and non-clinical d ata d escrib ed in Section V1.1.4. A cr oss all dose l evels […]
# 2). Subjects who cam e o ff treatment fo r unrelated reasons have shown a s ubsequent increase […]
# induced and reversible.Of note, across dose levels and cycl es anaemia has been uncommon to date (see IB). However, it is to be recognized that onl y few Module 1A patients have stayed on CT7001 for four months or longer.
# Fi g u re 2: Average reticulocyte counts across first three dosing cohorts (120, 240 & 480 […]
# Reticulocyte co unts for subj ects across the three cohorts were monitored over time. Values on treatment were nor malized to the avera ge value observed for each patient fro m scree ni ng a nd p re-treatment c ycle 0 sa mp les. Data are mean ± standard error of the mean for between n=35 and n=1 samples (denoted by symbol color). Linear […]
# V1.1.5.4 Minimum Biologically Active Dos e (MBA D)
# The study’s SRC originally d eclar ed 240 mg OD as MBAD based on observed target toxicit y (diarrhoea), target-medi ated PDc ef fect on reticul ocyt e counts and preliminar y si gnals of anti-tumour activity. This prompted the opening of a cohort with paired breast cancer biopsies at […]
# similar biological activity as observed for 240 m g OD, including PDc and anti-tumour ef fects. […]
# [3] = design: method as in ref IB; conditions: ref IB, cited from earlier work
# [4] = design: method as in ref IB; conditions: mouse; ref IB; cited from earlier work
# [5] = test system: patient-derived xenograft models of TNBC; design: method as in Bahl et al, 2017; conditions: ref Bahl et al, 2017; cited from earlier work
# dog = test system: dog; design: method as in ref IB; conditions: oral 5, 15, and 20 mg/kg, ref IB; cited from earlier work
structure (smiles),measurement,setting,value
"CC(C)c1cnn2c(NCc3ccccc3)cc(NC[C@H]3CCNC[C@@H]3O)nc12 [samuraciclib, Samuraciclib]",Intrinsic clearance,[1],intermediate
same,Intrinsic clearance,[2],high
same,Reticulocyte counts,reticulocyte counts; across all dose levels tested in Module 1A,decline in reticulocyt
same,Increase of reticulocyte counts after coming off treatment,reticulocyte counts; p = 0.08,25%
same,Overall turnover,[3]; human hepatocytes,low
same,"Phase II metabolism (e.g., glucuronidation)",[3]; mouse and human hepatocytes,No evidence
same,Oral bioavailability,[4],good oral bioavailability
same,Activity in vivo,[5],encouraging activity
same,"Haemodynamic parameters, ECG parameters, body temperature",dog,no effect
